The test relates to L1210 leukemia ip in BDF1 mice, survival T/C. Briefly: NCI In Vivo Anticancer Drug Screen. Data for tumor model L1210 Leukemia (intraperitoneal) in B6D2F1 (BDF1) mice. Particulars: endpoint: mean survival time, higher = longer survival. The method in brief: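 Read-out is survival time, reported as the treated-group measurement over the vehicle-control measurement.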
The mark [1] stands for this setting: dose: 50.0 mg/kg/injection, schedule: Q04DX003 (ip), vehicle: Klucel (hydroxypropylcellulose) (HPC).
The mark [2] stands for this setting: dose: 100.0 mg/kg/injection, schedule: Q01DX009 (ip), vehicle: saline.
The mark [3] stands for this setting: dose: 100.0 mg/kg/injection, schedule: Q04DX003 (ip), vehicle: saline.
Where [4] appears, read: dose: 400.0 mg/kg/injection, schedule: Q01DX009 (ip), vehicle: saline.
Where [5] appears, read: dose: 100.0 mg/kg/injection, schedule: Q04DX003 (ip), vehicle: Klucel (hydroxypropylcellulose) (HPC).
Setting [6] is: dose: 200.0 mg/kg/injection, schedule: Q01DX009 (ip), vehicle: Klucel (hydroxypropylcellulose) (HPC).
Where [7] appears, read: dose: 200.0 mg/kg/injection, schedule: Q04DX003 (ip), vehicle: Klucel (hydroxypropylcellulose) (HPC).
Setting [8] is: dose: 100.0 mg/kg/injection, schedule: Q01DX009 (ip), vehicle: Klucel (hydroxypropylcellulose) (HPC).
Where [9] appears, read: dose: 400.0 mg/kg/injection, schedule: Q01DX009 (ip), vehicle: Klucel (hydroxypropylcellulose) (HPC).

Values joined by “and” are separate entries in the source; they are usually repeats but may differ in a detail not shown here. Equal entries are not always repeated. Inconclusive results and toxic doses are left out.

Take `Nc1ccc(C(=O)C(=O)c2ccc(N)cc2)cc1`: the T/C is 102 % of control (dose: 75.0 mg/kg/injection, schedule: Q01DX001 (ip), vehicle: acetone) and 94 % of control (dose: 150.0 mg/kg/injection, schedule: Q01DX001 (ip), vehicle: acetone).
Regarding `Cc1cc(N(CCOS(C)(=O)=O)CCOS(C)(=O)=O)ccc1C=Nc1cc(Br)c(O)c(Br)c1`, the T/C (dose: 25.0 mg/kg/injection, schedule: Q04DX003 (ip), vehicle: Klucel (hydroxypropylcellulose) (HPC)) is 107 % of control and 111 % of control; the T/C under setting [1] is 109 % of control; the T/C (dose: 75.0 mg/kg/injection, schedule: Q04DX003 (ip), vehicle: Klucel (hydroxypropylcellulose) (HPC)) was 175 % of control.
Regarding `O=S(=O)(c1ccc(Cl)cc1)N1CCN(S(=O)(=O)c2ccc(Cl)cc2)C1`, the T/C by setting is: under setting [2], 97 % of control; under setting [3], 95 % of control; (dose: 200.0 mg/kg/injection, schedule: Q01DX009 (ip), vehicle: saline) 94 % of control; (dose: 200.0 mg/kg/injection, schedule: Q04DX003 (ip), vehicle: saline) 92 % of control; under setting [4], 92 % of control; (dose: 400.0 mg/kg/injection, schedule: Q04DX003 (ip), vehicle: saline) 103 % of control.
For `C=C(C)[C@@H]1CC[C@]2(C(=O)OC)CC[C@]3(C)[C@H](CC[C@@H]4[C@@]5(C)CC[C@H](O)C(C)(C)[C@@H]5CC[C@]43C)[C@@H]12`, the T/C is 103 % of control (dose: 100.0 mg/kg/injection, schedule: Q04DX003 (ip), vehicle: alcohol); 100 % of control (dose: 200.0 mg/kg/injection, schedule: Q04DX003 (ip), vehicle: alcohol); 91 % of control (dose: 400.0 mg/kg/injection, schedule: Q04DX003 (ip), vehicle: alcohol).
Turning to `COC(=O)C(Cc1ccccc1)NC(=O)C(COC1OC(COC(C)=O)C(OC(C)=O)C(OC(C)=O)C1NC(C)=O)NC(=O)OCc1ccccc1` (stereo not given), the T/C (dose: 50.0 mg/kg/injection, schedule: Q04DX002 (ip), vehicle: Klucel (hydroxypropylcellulose) (HPC)) was 101 % of control; the T/C (dose: 100.0 mg/kg/injection, schedule: Q04DX002 (ip), vehicle: Klucel (hydroxypropylcellulose) (HPC)) was 104 % of control; the T/C (dose: 200.0 mg/kg/injection, schedule: Q04DX002 (ip), vehicle: Klucel (hydroxypropylcellulose) (HPC)) is 101 % of control.
As to `CCSc1ncnc2c1ncn2CN1CCOCC1`, the T/C (dose: 15.0 mg/kg/injection, schedule: Q01DX009 (ip), vehicle: saline) is 116 % of control; the T/C (dose: 40.0 mg/kg/injection, schedule: Q01DX009 (ip), vehicle: Klucel (hydroxypropylcellulose) (HPC)) is 113 % of control; the T/C (dose: 45.0 mg/kg/injection, schedule: Q01DX009 (ip), vehicle: saline) was 103 % of control and 111 % of control; the T/C under setting [1] is 100 % of control; the T/C (dose: 60.0 mg/kg/injection, schedule: Q01DX009 (ip), vehicle: Klucel (hydroxypropylcellulose) (HPC)) is 116 % of control; the T/C (dose: 65.0 mg/kg/injection, schedule: Q01DX009 (ip), vehicle: saline) was 103 % of control and 111 % of control. In addition, the T/C reads like this: (dose: 66.0 mg/kg/injection, schedule: Q01DX009 (ip), vehicle: saline) 116 % of control; under setting [2], 108 % of control; under setting [5], 105 % of control; under setting [3], 115 % of control; (dose: 120.0 mg/kg/injection, schedule: Q01DX009 (ip), vehicle: saline) 177 % of control; (dose: 150.0 mg/kg/injection, schedule: Q01DX009 (ip), vehicle: saline) 164 % of control and 168 % of control. Moreover, the T/C (dose: 150.0 mg/kg/injection, schedule: Q04DX003 (ip), vehicle: saline) was 111 % of control; the T/C (dose: 175.0 mg/kg/injection, schedule: Q01DX009 (ip), vehicle: saline) is 151 % of control; the T/C under setting [6] is 173 % of control; the T/C under setting [7] is 109 % of control; the T/C (dose: 220.0 mg/kg/injection, schedule: Q01DX009 (ip), vehicle: saline) was 160 % of control; the T/C (dose: 220.0 mg/kg/injection, schedule: Q04DX003 (ip), vehicle: saline) is 119 % of control. The T/C runs as follows: (dose: 225.0 mg/kg/injection, schedule: Q01DX009 (ip), vehicle: saline) 122 % of control; (dose: 265.0 mg/kg/injection, schedule: Q01DX009 (ip), vehicle: saline) 95 % of control; (dose: 330.0 mg/kg/injection, schedule: Q01DX009 (ip), vehicle: saline) 107 % of control; under setting [4], 88 % of control.
In the case of `COC1OC2COC(c3ccccc3)OC2C(N=Cc2ccccc2)C1O` (stereo not given), the T/C runs as follows: (dose: 100.0 mg/kg/injection, schedule: Q01DX009 (ip), vehicle: saline with Tween-80) 97 % of control; (dose: 200.0 mg/kg/injection, schedule: Q01DX009 (ip), vehicle: saline with Tween-80) 101 % of control; (dose: 400.0 mg/kg/injection, schedule: Q01DX009 (ip), vehicle: saline with Tween-80) 98 % of control.
Take `O=NN(CCBr)C(=O)NCCBr`: the T/C is, setting by setting: (dose: 3.0 mg/kg/injection, schedule: Q01DX Z (ip), vehicle: carboxymethylcellulose (CMC)) 110 % of control; (dose: 6.0 mg/kg/injection, schedule: Q01DX Z (ip), vehicle: carboxymethylcellulose (CMC)) 107 % of control; (dose: 6.25 mg/kg/injection, schedule: Q01DX001 (ip), vehicle: carboxymethylcellulose (CMC)) 104 % of control; (dose: 12.5 mg/kg/injection, schedule: Q01DX001 (ip), vehicle: carboxymethylcellulose (CMC)) 103 % of control; (dose: 25.0 mg/kg/injection, schedule: Q01DX001 (ip), vehicle: carboxymethylcellulose (CMC)) 109 % of control; (dose: 50.0 mg/kg/injection, schedule: Q01DX001 (ip), vehicle: carboxymethylcellulose (CMC)) 114 % of control. Also, the T/C (dose: 50.0 mg/kg/injection, schedule: Q01DX Z (ip), vehicle: carboxymethylcellulose (CMC)) was 172 % of control; the T/C (dose: 100.0 mg/kg/injection, schedule: Q01DX Z (ip), vehicle: carboxymethylcellulose (CMC)) was 156 % of control; the T/C (dose: 200.0 mg/kg/injection, schedule: Q01DX001 (ip), vehicle: carboxymethylcellulose (CMC)) was 178 % of control; the T/C (dose: 300.0 mg/kg/injection, schedule: Q01DX001 (ip), vehicle: carboxymethylcellulose (CMC)) was 200 % of control.
`Cc1ccc(S(=O)(=O)NC(CSSCC(NS(=O)(=O)c2ccc(C)cc2)C(=O)OC(C)(C)C)C(=O)OC(C)(C)C)cc1` (stereo not given): the T/C is 101 % of control under setting [8]; 98 % of control under setting [5]; 106 % of control under setting [6]; 101 % of control under setting [7]; 95 % of control under setting [9]; 98 % of control (dose: 400.0 mg/kg/injection, schedule: Q04DX003 (ip), vehicle: Klucel (hydroxypropylcellulose) (HPC)).
Turning to `CNC(=O)Oc1ccc(C(=O)OC)cc1`, the T/C runs as follows: (dose: 100.0 mg/kg/injection, schedule: Q01DX001 (ip), vehicle: saline) 93 % of control; (dose: 200.0 mg/kg/injection, schedule: Q01DX001 (ip), vehicle: saline) 90 % of control; (dose: 400.0 mg/kg/injection, schedule: Q01DX001 (ip), vehicle: saline) 122 % of control.
`O=C(COc1cc(Cl)c(Cl)cc1Cl)Nc1ccc(-c2ccccc2)cc1`: the T/C reads like this: (dose: 75.0 mg/kg/injection, schedule: Q04DX002 (ip), vehicle: Klucel (hydroxypropylcellulose) (HPC)) 95 % of control; (dose: 150.0 mg/kg/injection, schedule: Q04DX002 (ip), vehicle: Klucel (hydroxypropylcellulose) (HPC)) 103 % of control; (dose: 300.0 mg/kg/injection, schedule: Q04DX002 (ip), vehicle: Klucel (hydroxypropylcellulose) (HPC)) 98 % of control.
With `CC(=O)c1cccc(N=Cc2ccc(Cl)cc2Cl)c1`, the T/C runs as follows: under setting [8], 95 % of control; under setting [6], 93 % of control; under setting [9], 93 % of control.
For the compound `Nc1cc(N)c(N)cc1N`, the T/C reads like this: (dose: 9.38 mg/kg/injection, schedule: Q01DX001 (ip), vehicle: saline) 95 % of control; (dose: 18.75 mg/kg/injection, schedule: Q01DX001 (ip), vehicle: saline) 101 % of control; (dose: 37.5 mg/kg/injection, schedule: Q01DX001 (ip), vehicle: saline) 111 % of control.

The record behind these values is PubChem BioAssay AID248 (DTP/NCI, 2004).
